Experimental data as given in patent US20240247048A1 (EMORY UNIVERSITY, priority 2021, published 2024).

Assays:
PDAC patient T cells = experiment: ex vivo 9-day expansion of PDAC patient peripheral blood T cells; assay type: cell-based, human
Protocol: (FIG. 17A) Representative western blot and (FIG. 17B) quantified expression levels of VPAC1 and VPAC2; and (FIG. 17C) PD-1 and CTLA-4 in lysates of healthy human T cells expanded with plate bound human anti-CD3 antibodies for 0, 3, 6, 12, 24, 48 and 72 hours. Lower molecular weight band of 25kD shown for VPAC2-specific expression as confirmed from our VPAC2 KO model. Percentage of (FIG. 17D) CD69 expression at 24 h post activation (FIG. 17E) phosphorylation of CREB (phospho-CREB) downstream of VPAC1/2 receptor at 6 h and in CD4+ and CD8+ T cells normalized to levels in control with no peptide. PDAC patient peripheral blood T cells were expanded for 9 days with plate bound human anti-CD3 antibodies+/−ANT008 and the (FIG. 17F) percentage of Tregs was quantified using the (FIG. 17G) gating strategy shown. […] Statistical differences in FIGS. 17D and 17E were calculated via repeated measures ANOVA followed by Dunnett's post-test where each sample in the treatment group was compared to the matched sample in the control group (scrambled treated). Statistical differences in FIGS. 17F, 17H, and 17I were calculated via paired student T-test. […]
(§1) Human T cell activation and expansion. […] Cells were counted using Trypan blue dye and phenotyped via flow cytometry on day 9. […]

human T cells = experiment: activation of healthy-donor human T cells (anti-CD3), marker expression by flow cytometry; assay type: cell-based; conditions: 24 h post activation, 3 uM, vs scrambled peptide; FIG. 17d
Protocol: Mean value from ‘Activated’ group shown with dotted line (---) for comparison. Responses from same healthy donors are shown with same color dots. Error bars are computed as the standard error of the mean (SEM) from 6 healthy donor samples.
This study adopted an ex-vivo system using human T cells isolated from healthy donors to screen for novel VIP-R antagonist peptides. Human T cells were cultured over 6 or 24 hours with activation in the presence or absence of peptides and were assessed for percent CD69 surface expression by flow cytometry to measure the state of T cell activation. The activity of the peptides was determined by percent increase in CD69 expression relative to no peptide control. […] We also observed that amongst the donors, most were classified as average responders, with measured value for CD69 expression within the error bars while two others had measured values outside the error bars, one sample reflecting a super-responder (purple dots) and one sample reflecting a slow-responder (green dots) (FIGS. 10A and 10B). […]
as §1

Row | Sequence | T cells with an exhausted phenotype (co-expressing PD1 and Tim-3 or Lag-3) (PDAC patient T cells; CD4+ and CD8+ subsets, 9 days, FIG. 17h, 17i) | proportion of human Tregs (CD4+ CD25+ FoxP3+) (PDAC patient T cells; after 9 days of T cell expansion, FIG. 17f) | CD69 expression in CD4 and CD8 human T cells (human T cells)
1 | KPRRPYTDNYTRLRKQMAVKKYLNLILN [ANT008] | significantly decreased | significantly decreased | 
2 | KPRRPYTSDYTRLRKQMAVKKYLNLILN [ANT308] |  |  | significantly increased
